pEC50: −log10 of the molar value.
Target: T1, human mAChR M1 (Homo sapiens, UniProt P11229)
T1 sequence (P11229 1-460): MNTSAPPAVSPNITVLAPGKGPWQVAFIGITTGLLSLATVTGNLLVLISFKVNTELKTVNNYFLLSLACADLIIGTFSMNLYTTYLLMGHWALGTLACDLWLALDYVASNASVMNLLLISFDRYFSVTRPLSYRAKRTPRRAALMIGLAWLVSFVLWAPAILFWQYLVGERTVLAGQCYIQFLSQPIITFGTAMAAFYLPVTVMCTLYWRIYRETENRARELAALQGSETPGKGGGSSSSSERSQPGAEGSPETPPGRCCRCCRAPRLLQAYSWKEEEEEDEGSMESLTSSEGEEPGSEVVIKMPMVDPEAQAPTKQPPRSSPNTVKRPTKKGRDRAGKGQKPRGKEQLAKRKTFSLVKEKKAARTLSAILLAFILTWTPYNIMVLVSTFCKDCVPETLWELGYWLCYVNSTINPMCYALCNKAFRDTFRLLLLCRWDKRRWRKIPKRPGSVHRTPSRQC
Assay: mAChR M1 cell-based functional assay: calcium mobilization, positive allosteric modulator mode (increase in EC20 acetylcholine response)
Details: Table 2, human M1; for pEC50: read-out: Human M1 EC50; for Emax: read-out: Human M1 Emax (%)
Procedure, shortened: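 Calcium-flux assay in CHO-K1 cells stably expressing human M1, loaded with Fluo-4 AM (50 min, 37 °C) and read at 1 Hz. Compound (11-point, 1:3 series) was added at 4 s, EC20 acetylcholine at 144 s and EC80 at 230 s. PAM activity is the concentration-dependent rise in the EC20 response, fitted with a four-parameter logistic.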

| Compound | pEC50 | Emax |
| --- | --- | --- |
| Cn1cc(-c2ccc(Cc3cc(C(=O)NC[C@H]4CCCO4)nc4ccsc34)cn2)cn1 [Compound 339, 7-[[6-(1-methylpyrazol-4-yl)-3-pyridyl]methyl]-N-[[(2R)-tetrahydrofuran-2-yl]methyl]thieno[3,2-b]pyridine-5-carboxamide] | 6.88 | 87.4% |
| Cn1cc(-c2ccc(Cc3cc(C(=O)NCC4CCCCO4)nc4ccsc34)cn2)cn1 (stereo not drawn) [Compound 340, 7-[[6-(1-methylpyrazol-4-yl)-3-pyridyl]methyl]-N-(tetrahydropyran-2-ylmethyl)thieno[3,2-b]pyridine-5-carboxamide] | 6.65 | 88.3% |
| COCCNC(=O)c1cc(Cc2ccc(-c3cnn(C)c3)nc2)c2sccc2n1 [Compound 342, N-(2-methoxyethyl)-7-[[6-(1-methylpyrazol-4-yl)-3-pyridyl]methyl]thieno[3,2-b]pyridine-5-carboxamide] | 6.54 | 89.5% |
| Cn1cc(-c2ccc(Cc3cc(C(=O)NC4CC(F)(F)C4)nc4ccsc34)cn2)cn1 [Compound 345, N-(3,3-difluorocyclobutyl)-7-[[6-(1-methylpyrazol-4-yl)-3-pyridyl]methyl]thieno[3,2-b]pyridine-5-carboxamide] | 6.69 | 74.5% |
| Cn1cc(-c2ccc(Cc3cc(C(=O)NC4CC(F)C4)nc4ccsc34)cn2)cn1 (stereo not drawn) [Compound 346, N-(3-fluorocyclobutyl)-7-[[6-(1-methylpyrazol-4-yl)-3-pyridyl]methyl]thieno[3,2-b]pyridine-5-carboxamide] | 6.58 | 89.4% |
| Cn1cc(-c2ccc(Cc3cc(C(=O)NCC4CCOC4)nc4ccsc34)cn2)cn1 (stereo not drawn) [Compound 348, 7-[[6-(1-methylpyrazol-4-yl)-3-pyridyl]methyl]-N-(tetrahydrofuran-3-ylmethyl)thieno[3,2-b]pyridine-5-carboxamide] | 6.89 | 85.6% |
| Cn1cc(-c2ccc(Cc3cc(C(=O)NC[C@@H]4CCCO4)nc4ccsc34)cn2)cn1 [Compound 349, 7-[[6-(1-methylpyrazol-4-yl)-3-pyridyl]methyl]-N-[[(2S)-tetrahydrofuran-2-yl]methyl]thieno[3,2-b]pyridine-5-carboxamide] | 7.60 | 89.8% |
| Cn1ccc(-c2ccc(Cc3cc(C(=O)NC4CC5(COC5)C4)nc4ccsc34)cn2)n1 [Compound 351, 7-[[6-(1-methylpyrazol-3-yl)-3-pyridyl]methyl]-N-(2-oxaspiro[3.3]heptan-6-yl)thieno[3,2-b]pyridine-5-carboxamide] | 6.84 | 89.9% |
| Cn1ccc(-c2ccc(Cc3cc(C(=O)N[C@H]4CCC[C@@H]4O)nc4ccsc34)cn2)n1 [Compound 352, N-[(1S,2S)-2-hydroxycyclopentyl]-7-[[6-(1-methylpyrazol-3-yl)-3-pyridyl]methyl]thieno[3,2-b]pyridine-5-carboxamide] | 7.49 | 90.7% |
| Cn1ccc(-c2ccc(Cc3cc(C(=O)N[C@H]4CCCC[C@@H]4O)nc4ccsc34)cn2)n1 [Compound 354, N-[(1S,2S)-2-hydroxycyclohexyl]-7-[[6-(1-methylpyrazol-3-yl)-3-pyridyl]methyl]thieno[3,2-b]pyridine-5-carboxamide] | 7.83 | 64.2% |
| Cn1ccc(-c2ccc(Cc3cc(C(=O)NCC4CCO4)nc4ccsc34)cn2)n1 (stereo not drawn) [Compound 355, 7-[[6-(1-methylpyrazol-3-yl)-3-pyridyl]methyl]-N-(oxetan-2-ylmethyl)thieno[3,2-b]pyridine-5-carboxamide] | 6.45 | 86.6% |
| Cn1ccc(-c2ccc(Cc3cc(C(=O)NCC4CCOC4)nc4ccsc34)cn2)n1 (stereo not drawn) [Compound 356, 7-[[6-(1-methylpyrazol-3-yl)-3-pyridyl]methyl]-N-(tetrahydrofuran-3-ylmethyl)thieno[3,2-b]pyridine-5-carboxamide] | 6.41 | 84.8% |
| Cn1ccc(-c2ccc(Cc3cc(C(=O)NC[C@@H]4CCOC4)nc4ccsc34)cn2)n1 [Compound 357] | 6.34 | 86.5% |
| Cn1ccc(-c2ccc(Cc3cc(C(=O)NCC4CCOCC4)nc4ccsc34)cn2)n1 [Compound 358, 7-[[6-(1-methylpyrazol-3-yl)-3-pyridyl]methyl]-N-(tetrahydropyran-4-ylmethyl)thieno[3,2-b]pyridine-5-carboxamide] | 6.70 | 84.3% |
| Cn1ccc(-c2ccc(Cc3cc(C(=O)NCC4CCCCO4)nc4ccsc34)cn2)n1 (stereo not drawn) [Compound 359, 7-[[6-(1-methylpyrazol-3-yl)-3-pyridyl]methyl]-N-(tetrahydropyran-2-ylmethyl)thieno[3,2-b]pyridine-5-carboxamide] | 6.24 | 83.4% |
| Cn1cc(-c2ccc(Cc3cc(C(=O)NCC4CCN4)nc4ccsc34)cn2)cn1 (stereo not drawn) [Compound 360, N-(azetidin-2-ylmethyl)-7-[[6-(1-methylpyrazol-4-yl)-3-pyridyl]methyl]thieno[3,2-b]pyridine-5-carboxamide] | 7.41 | 88.1% |
| Cn1cc(-c2ccc(Cc3cc(C(=O)NC4CCOCC4(C)C)nc4ccsc34)cn2)cn1 (stereo not drawn) [Compound 362, N-(3,3-dimethyltetrahydropyran-4-yl)-7-[[6-(1-methylpyrazol-4-yl)-3-pyridyl]methyl]thieno[3,2-b]pyridine-5-carboxamide] | 7.07 | 72.4% |
| COCC(C)NC(=O)c1cc(Cc2ccc(-c3cnn(C)c3)nc2)c2sccc2n1 (stereo not drawn) [Compound 363, N-(2-methoxy-1-methyl-ethyl)-7-[[6-(1-methylpyrazol-4-yl)-3-pyridyl]methyl]thieno[3,2-b]pyridine-5-carboxamide] | 6.49 | 85.2% |
| Cn1cc(-c2ccc(Cc3cc(C(=O)NC4CN(C5COC5)C4)nc4ccsc34)cn2)cn1 [Compound 364] | 6.08 | 83.8% |

Continued, values first:

| pEC50 | Emax | Compound |
| --- | --- | --- |
| 5.77 | 78.8% | Cn1cc(-c2ccc(Cc3cc(C(=O)NC4COC4)nc4ccsc34)cn2)cn1 [Compound 341, 7-[[6-(1-methylpyrazol-4-yl)-3-pyridyl]methyl]-N-(oxetan-3-yl)thieno[3,2-b]pyridine-5-carboxamide] |
| 6.01 | 80.8% | Cn1cc(-c2ccc(Cc3cc(C(=O)N[C@H]4CCOC4)nc4ccsc34)cn2)cn1 [Compound 343, 7-[[6-(1-methylpyrazol-4-yl)-3-pyridyl]methyl]-N-[(3S)-tetrahydrofuran-3-yl]thieno[3,2-b]pyridine-5-carboxamide] |
| 6.10 | 85.5% | Cn1cc(-c2ccc(Cc3cc(C(=O)N[C@@H]4CCOC4)nc4ccsc34)cn2)cn1 [Compound 344, 7-[[6-(1-methylpyrazol-4-yl)-3-pyridyl]methyl]-N-[(3R)-tetrahydrofuran-3-yl]thieno[3,2-b]pyridine-5-carboxamide] |
| 6.30 | 82.2% | Cn1cc(-c2ccc(Cc3cc(C(=O)N[C@H]4CCCOC4)nc4ccsc34)cn2)cn1 [Compound 347, 7-[[6-(1-methylpyrazol-4-yl)-3-pyridyl]methyl]-N-[(3S)-tetrahydropyran-3-yl]thieno[3,2-b]pyridine-5-carboxamide] |
| 7.09 | 70.5% | Cn1ccc(-c2ccc(Cc3cc(C(=O)NC4CCOCC4)nc4ccsc34)cn2)n1 [Compound 350, 7-[[6-(1-methylpyrazol-3-yl)-3-pyridyl]methyl]-N-tetrahydropyran-4-yl-thieno[3,2-b]pyridine-5-carboxamide] |
| 8.30 | 62.1% | Cn1ccc(-c2ccc(Cc3cc(C(=O)N[C@H]4CCOC[C@@H]4O)nc4ccsc34)cn2)n1 [Compound 353, N-[(3R,4S)-3-hydroxytetrahydropyran-4-yl]-7-[[6-(1-methylpyrazol-3-yl)-3-pyridyl]methyl]thieno[3,2-b]pyridine-5-carboxamide] |
| 6.94 | 86.9% | Cn1cc(-c2ccc(Cc3cc(C(=O)N[C@@H]4CCCOC4)nc4ccsc34)cn2)cn1 [Compound 361, 7-[[6-(1-methylpyrazol-4-yl)-3-pyridyl]methyl]-N-[(3R)-tetrahydropyran-3-yl]thieno[3,2-b]pyridine-5-carboxamide] |
| 5.87 | 57.9% | O=C(NC1COC1)c1cc(Cc2ccc(-c3nccs3)cc2)c2sccc2n1 [Compound 365, N-(oxetan-3-yl)-7-[(4-thiazol-2-ylphenyl)methyl]thieno[3,2-b]pyridine-5-carboxamide] |
| 5.73 | 83.7% | O=C(NC1CCCOC1)c1cc(Cc2ccc(-c3nccs3)cc2)c2sccc2n1 (stereo not drawn) [Compound 366, N-tetrahydropyran-3-yl-7-[(4-thiazol-2-ylphenyl)methyl]thieno[3,2-b]pyridine-5-carboxamide] |
| < 5.00 | 71.9% | O=C(NC1CC(F)C1)c1cc(Cc2ccc(-c3nccs3)cc2)c2sccc2n1 (stereo not drawn) [Compound 367, N-(3-fluorocyclobutyl)-7-[(4-thiazol-2-ylphenyl)methyl]thieno[3,2-b]pyridine-5-carboxamide] |
| 5.64 | 65.6% | O=C(N[C@@H]1CCOC1)c1cc(Cc2ccc(-c3nccs3)cc2)c2sccc2n1 [Compound 368] |

— patent publication US11111251B2, “Positive allosteric modulators of the muscarinic acetylcholine receptor M1” (Vanderbilt University, priority 2016, dated 2021)
